US6987092B1, “Indigoid bisindole derivatives” (Faustus Forschungs Cie. Translational Cancer Research GmbH, priority 1999, dated 2006)

How the values were obtained:
Assay type in all cases: cell-based
LXFL-529L cells = assay: Cellular uptake by LXFL-529L cells; settings: 2 hours; for distribution particular: cellular organelles
Protocol: The amounts of the substances which were taken up by the cells are given depending on the concentration of the substance within the incubation medium. The time of incubation was 2 hours in all of the experiments. Furthermore, distribution between cytosol and the cellular organelles (particular) was measured and is given in the last two columns of Table 3.

[1] = test system: cells of the large-cell lung carcinoma of the tumor line LXFL-529L; assay: Tumor cell growth inhibition, SRB-assay, LXFL-529L; settings: 50% growth inhibition, three days incubation in serum-containing medium
[2] = test system: cells of the mammary carcinoma cell line MCF-7; assay: Tumor cell growth inhibition, SRB-assay, MCF-7; settings: 50% growth inhibition, three days incubation in serum-containing medium
[3] = concentration of incubation 10 μM
[4] = concentration of incubation 20 μM
[5] = concentration of incubation 50 μM

Row | Compound | distribution particular (LXFL-529L cells; [3]) | distribution particular (LXFL-529L cells; [4]) | amount taken up (LXFL-529L cells; [3]) | distribution cytosol (LXFL-529L cells; [3]) | amount taken up (LXFL-529L cells; [4]) | distribution cytosol (LXFL-529L cells; [4]) | IC50 [1] | IC50 [2] | distribution particular (LXFL-529L cells; [5]) | amount taken up (LXFL-529L cells; [5]) | distribution cytosol (LXFL-529L cells; [5])
1 | CCc1ccc2c(c1)C(=C1Nc3ccccc3C1=NO)C(=O)N2 [Example 26, 5-ethyl-indirubin-3′-monooxime] | 82 ± 6% | 89 ± 5% | 0.10 ± 0.03 μg/mg protein | 18 ± 3% | 0.13 ± 0.05 μg/mg protein | 11 ± 3% | 6 ± 0.6 µM | 7 ± 0.9 µM | – | – | –
2 | 3-{3′-[iminooxy-O-(2-D-glucopyranosylethyl)]-(2′H3′H)indol-2′-ylidene}-(2H3H)indol-2-one [Example 48] | 87 ± 7% | 95 ± 6% | 0.20 ± 0.05 μg/mg protein | 13 ± 3% | 0.25 ± 0.04 μg/mg protein | 5 ± 1% | 21 ± 1.5 µM | 3.5 ± 0.6 µM | – | – | –
3 | Nc1ccc2c(c1)C(=C1Nc3ccccc3C1=O)C(=O)N2 [Example 15, 5-amino-indirubin] | 85 ± 4% | 94 ± 4% | 0.25 ± 0.04 μg/mg protein | 15 ± 2% | 0.29 ± 0.05 μg/mg protein | 6 ± 1% | 8 ± 0.7 µM | 5 ± 0.5 µM | – | – | –
4 | Nc1ccc2c(c1)C(=C1Nc3ccccc3C1=NO)C(=O)N2 [Example 28, 5-amino-indirubin-3′-monooxime] | 90 ± 6% | 94 ± 5% | 0.20 ± 0.06 μg/mg protein | 10 ± 2% | 0.23 ± 0.05 μg/mg protein | 90 ± 6% | 7.5 ± 0.4 µM | 5 ± 0.8 µM | – | – | –
5 | CCc1ccc2c(c1)/C(=C1/Nc3ccccc3C1=O)C(=O)N2 [Example 2, 5-ethyl-indirubin] | 90 ± 6% | 95 ± 3% | 0.20 ± 0.05 μg/mg protein | 10 ± 2% | 0.22 ± 0.07 μg/mg protein | 5 ± 2% | 7 ± 0.2 µM | 7 ± 0.2 µM | – | – | –
6 | O=C1Nc2ccccc2C1=C1Nc2ccccc2C1=NOCCO [Example 31] | 93 ± 7% | 93 ± 6% | 0.27 ± 0.06 μg/mg protein | 7 ± 1% | 0.31 ± 0.07 μg/mg protein | 7 ± 2% | 1.5 ± 0.4 µM | 2.5 ± 0.4 µM | – | – | –
7 | NCC(=O)Nc1ccc2c(c1)C(=C1Nc3ccccc3C1=NO)C(=O)N2 [Example 30, 2-amino-N-[3-(3′-hydroxyimino-(2H3H)indol-2′-ylidene)-(2H3H)-indol-2-one-5-yl]-acetamide] | – | – | – | – | – | – | 6 ± 0.8 µM | 6 ± 0.7 µM | – | – | –
8 | NC(=O)CON=C1C(=C2C(=O)Nc3ccccc32)Nc2ccccc21 [Example 42, 2-{O-[2′-(2-oxo-(2H3H)indol-3-ylidene)-(2′H3′H)indol-3′-ylidene]-aminooxy}-acetamide] | – | – | – | – | – | – | 2 ± 0.3 µM | 6 ± 0.5 µM | – | – | –
9 | O=C1Nc2ccccc2C1=C1Nc2ccccc2C1=NOCCOCCO [Example 33, 3-{3′-[iminooxy-O-(2-(2-hydroxy-ethoxy)-ethyl)]-(2′H3′H)indol-2′-ylidene}-(2H3H)indol-2-one] | – | – | – | – | – | – | 2 ± 0.4 µM | 2.5 ± 0.5 µM | – | – | –
10 | O=C1Nc2ccccc2C1=C1Nc2ccccc2C1=NOCCN1CCOCC1 [Example 64, 3-{3′-[iminooxy-O-(2-(morpholin-4-yl)-ethyl)]-(2′H3′)indol-2′-ylidene}-(2H3H)indol-2-one] | – | – | – | – | – | – | 10 ± 0.6 µM | 9 ± 1.2 µM | – | – | –
11 | O=C1Nc2ccccc2C1=C1Nc2ccccc2C1=NOCCNC[C@H](O)[C@@H](O)[C@H](O)[C@H](O)CO [Example 55, 3-{3′-[iminooxy-O-(N-(1-deoxy-glucitol)-2-amino-ethyl)]-(2′H3′H)indol-2′-ylidene}-(2H3H)indol-2-one] | – | – | – | – | – | – | 3 ± 0.6 µM | 3 ± 0.8 µM | – | – | –
12 | NCC(=O)Nc1ccc2c(c1)C(=C1Nc3ccccc3C1=O)C(=O)N2 [Example 18, 2-amino-N-[3-(3′-oxo-(2′H3′H)indol-2′-ylidene)-(2H3H)indol-2-one-5-yl]-acetamide] | – | – | – | – | – | – | 4 ± 0.4 µM | 3 ± 0.3 µM | – | – | –
13 | NCCNC(=O)Cc1ccc2c(c1)C(=C1Nc3ccccc3C1=O)C(=O)N2 [Example 8, N-(2-amino-ethyl)-2-[3-(3′-oxo-(2′H3′H)indol-2′-ylidene)-(2H3H)indol-2-one-5-yl]-acetamide] | – | – | – | – | – | – | 3.5 ± 0.7 µM | 4 ± 0.6 µM | – | – | –
14 | Cc1ccc2c(c1)C(=C1Nc3ccccc3C1=NO)C(=O)N2 [Example 25, 5-methyl-indirubin-3′-monooxime] | 80 ± 5% | 84 ± 4% | 0.12 ± 0.03 μg/mg protein | 20 ± 4% | 0.15 ± 0.04 μg/mg protein | 16 ± 3% | 6 ± 0.8 µM | 6 ± 0.9 µM | 90 ± 8% | 0.18 ± 0.06 μg/mg protein | 10 ± 4%
15 | O=C1Nc2ccc(CP(=O)(O)O)cc2C1=C1Nc2ccccc2C1=O [Example 13, [3-(3′-oxo-(2′H3′H)indol-2′-ylidene)-(2H3H)indol-2-one-5-yl]-methyl-phosphonic Acid] | – | – | – | – | – | – | 8.5 ± 0.8 µM | 6.5 ± 1 µM | – | – | –
16 | CC(N)C(=O)Nc1ccc2c(c1)C(=C1Nc3ccccc3C1=O)C(=O)N2 (stereo not drawn) [Example 19, 2-amino-N-[3-(3′-oxo-(2′H3′H)indol-2′-ylidene)-(2H3H)indol-2-one-5-yl]-propionamide] | – | – | – | – | – | – | 7 ± 0.7 µM | 5 ± 0.6 µM | – | – | –
17 | CCOP(=O)(Cc1ccc2c(c1)C(=C1Nc3ccccc3C1=O)C(=O)N2)OCC [Example 14, diethyl-{[3-(3′-oxo-(2′H3′H)indol-2′-ylidene)-(2H3H)indol-2-one-5-yl]-methyl}-phosphonate] | – | – | – | – | – | – | 6.5 ± 1.2 µM | 6 ± 1.1 µM | – | – | –
18 | CC(C)c1ccc2c(c1)C(=C1Nc3ccccc3C1=NO)C(=O)N2 [Example 27, 5-isopropyl-indirubin-3′-monooxime] | – | – | – | – | – | – | 5.5 ± 0.6 µM | 5 ± 0.9 µM | – | – | –
